# From patent US20230346670A1, “Prebiotic Oral Care Compositions and Methods” (Colgate-Palmolive Company, priority 2020, published 2023)
# Marks after values point to notes of the source that are not given here.
# Columns and labels:
# Type in all cases: cell-based
# S. mitis = assay: Multi-species biofilm composition, absolute abundance (Geq/mL); conditions: repeated rinsing
# Method: (§1) Biofilms are grown vertically on Calcium Deficient Hydroxyapatite (CAD-HA) disks (Hitemco Medical, Old Bethpage, USA) using the Amsterdam Active Adhesion model. Biofilms are allowed to establish during 24 h (37° C., 170 rpm) under microaerophilic conditions (6% O2, 7% CO2, 7% H2, 80% N2). After this 24 h, disks are rinsed 3 times a day for 3 minutes (RT, 250 rpm), for 3 consecutive days, by transferring the lid containing the disks to a new 24-well plate containing 2 mL/well of the appropriate substrate solution. As a negative control, PBS (pH 5.7) without substrate supplementation is used.
# (§2) N-acetyl-D-glucosamine (NADG), α-D-lactose, D-(+)-trehalose and D-(+)-raffinose are selected to determine their effects on multi-species biofilm composition. Repeated rinsing of the biofilms with the substrates at a concentration of 1 M results in a significant decrease in absolute numbers in at least four of the pathogenic bacterial species tested in the assay, in comparison to the control, the results of which are described in Table 1 below. Note, NADG decreased absolute numbers of S. sobrinus. Absolute abundances of bacterial species are shown as mean ± SD (n = 3) logarithmic values of the genome equivalents per millilitre (log(Geq/mL)).
# P. gingivalis = assay: as above; conditions: repeated rinsing
# Method: as §1, §2
# P. intermedia = assay: as above; conditions: repeated rinsing
# Method: as §1, §2
# A. naeslundii = assay: as above; conditions: repeated rinsing
# Method: as §1, §2
# S. gordonii = assay: as above; conditions: repeated rinsing
# Method: as §1, §2
# S. oralis = assay: as above; conditions: repeated rinsing
# Method: as §1, §2
# A. actinomycetemcomitans = assay: as above; conditions: repeated rinsing
# Method: as §1, §2
# S. sobrinus = assay: as above; conditions: repeated rinsing
# Method: as §1, §2
# S. salivarius = assay: as above; conditions: repeated rinsing
# Method: as §1
# as §2, with “Repeated rinsing of the biofilms with the substrates at a concentration of 1 M results in a significant” left out
# S. sanguinis = assay: as above; conditions: repeated rinsing
# Method: as §1
# as §2, with “Repeated rinsing of the biofilms with the substrates at a concentration of 1 M results in a significant” left out
# S. mutans = assay: as above; conditions: repeated rinsing
# Method: as §1
# as §2, with “Repeated rinsing of the biofilms with the substrates at a concentration of 1 M results in a significant” left out
# A. viscosus = assay: as above; conditions: for absolute abundance of A. viscosus (Av), mean ± SD log (Geq/mL): repeated rinsing
# Method: as §1
# as §2, with “Repeated rinsing of the biofilms with the substrates at a concentration of 1 M results in a significant” left out
# F. nucleatum = assay: as above; conditions: repeated rinsing
# Method: as §1
# as §2, with “Repeated rinsing of the biofilms with the substrates at a concentration of 1 M results in a significant” left out
# V. parvula = assay: as above; conditions: for absolute abundance of V. parvula (VP), mean ± SD log (Geq/mL): repeated rinsing
# Method: as §1
# as §2, with “Repeated rinsing of the biofilms with the substrates at a concentration of 1 M results in a significant” left out
# [1] = system: F. nucleatum virulence genes; assay: Virulence gene expression in multi-species biofilm (SYBR RT-qPCR); conditions: relative to control = 1, 2^-ΔΔCt, n = 3
# Method: as §1
# The virulence of the substrate-treated multi-species biofilms are evaluated by analyzing the relative expression of 33 genes that are recognized as being related to some form of virulence and from 4 periodontal pathogens.
# Expression of bacterial virulence genes is analyzed through SYBR RT-qPCR and normalized for bacterial housekeeping gene expression. […] These effects are illustrated in Tables 6a and 6b:
# Note, for Table 6c, fold changes in virulence gene expression are determined relative to the control condition through the 2^^-ΔΔCt method and are shown as the geometric mean (C.I.) (n = 3) of the 2^^-ΔΔCt values. All substrates are dissolved in PBS at a concentration of 1 M (upper part) or 1%(w/v) (lower part). Values between 0 and 1 represent relative downregulation, values >1 represent relative upregulation. […] NADG: N-acetyl-D-glucosamine; C.I.: 95% confidence interval.
# [2] = system: multi-species biofilm (beneficial/commensal species, periodontal pathogens, cariogenic pathogens); assay: Multi-species biofilm composition, relative proportions and group changes
# Method: Biofilms are grown vertically on Calcium Deficient Hydroxyapatite (CAD-HA) disks (Hitemco Medical, Old Bethpage, USA) using the Amsterdam Active Adhesion model. […] After this 24 h, disks are rinsed 3 times a day for 3 minutes (RT, 250 rpm), for 3 consecutive days, by transferring the lid containing the disks to a new 24-well plate containing 2 mL/well of the appropriate substrate solution. As a negative control, PBS (pH 5.7) without substrate supplementation is used. N-acetyl-D-glucosamine (NADG), α-D-lactose, D-(+)-trehalose and D-(+)-raffinose are selected to determine their effects on multi-species biofilm composition. Repeated rinsing of the biofilms with the substrates at a concentration of 1 M results in a significant decrease in absolute numbers in at least four of the pathogenic bacterial species tested in the assay, in comparison to the control, the results of which are described in Table 1 below. Note, NADG decreased absolute numbers of S. sobrinus. Absolute abundances of bacterial species are shown as mean ± SD (n = 3) logarithmic values of the genome equivalents per millilitre (log(Geq/mL)).
# [3] = Table 1a, substrate 1 M, listed as D-(+)-trehalose
# [4] = Table 3, separate experiments, concentration not given
compound,measurement,setting,value
"OC[C@H]1O[C@H](O[C@H]2O[C@H](CO)[C@@H](O)[C@H](O)[C@H]2O)[C@H](O)[C@@H](O)[C@@H]1O [D-trehalose, D-(+)-trehalose]","absolute abundance of S. mitis, mean ± SD log (Geq/mL)",S. mitis; substrate 1% (w/v),2.65 ± 0.00 log (Geq/mL)
same,"absolute abundance of S. mitis, mean ± SD log (Geq/mL)","S. mitis; substrate 1 M in PBS, n = 3",3.15 ± 0.71 log (Geq/mL)
same,"absolute abundance of P. gingivalis (Pg), mean ± SD log (Geq/mL)",P. gingivalis; substrate 1% (w/v),7.05 ± 0.19 log (Geq/mL)
same,"absolute abundance of P. gingivalis (Pg), mean ± SD log (Geq/mL)","P. gingivalis; substrate 1 M in PBS, n = 3",4.37 ± 0.29^∗ log (Geq/mL)
same,"absolute abundance of P. intermedia (Pi), mean ± SD log (Geq/mL)",P. intermedia; substrate 1% (w/v),7.88 ± 0.33 log (Geq/mL)
same,"absolute abundance of P. intermedia (Pi), mean ± SD log (Geq/mL)","P. intermedia; substrate 1 M in PBS, n = 3",4.47 ± 0.60^∗ log (Geq/mL)
same,"absolute abundance of A. naeslundii (An), mean ± SD log (Geq/mL)",A. naeslundii; substrate 1% (w/v),7.6 ± 0.15 log (Geq/mL)
same,"absolute abundance of A. naeslundii (An), mean ± SD log (Geq/mL)","A. naeslundii; substrate 1 M in PBS, n = 3",4.81 ± 0.47^∗ log (Geq/mL)
same,"absolute abundance of S. gordonii, mean ± SD log (Geq/mL)",S. gordonii; substrate 1% (w/v),8.45 ± 0.27 log (Geq/mL)
same,"absolute abundance of S. gordonii, mean ± SD log (Geq/mL)","S. gordonii; substrate 1 M in PBS, n = 3",9.39 ± 0.31 log (Geq/mL)
same,"absolute abundance of S. oralis, mean ± SD log (Geq/mL)",S. oralis; substrate 1% (w/v),6.59 ± 0.42 log (Geq/mL)
same,"absolute abundance of S. oralis, mean ± SD log (Geq/mL)","S. oralis; substrate 1 M in PBS, n = 3",6.71 ± 0.48 log (Geq/mL)
same,"absolute abundance of A. actinomycetemcomitans (Aa), mean ± SD log (Geq/mL)",A. actinomycetemcomitans; substrate 1% (w/v),9.28 ± 0.43 log (Geq/mL)
same,"absolute abundance of A. actinomycetemcomitans (Aa), mean ± SD log (Geq/mL)","A. actinomycetemcomitans; substrate 1 M in PBS, n = 3",7.86 ± 0.22^∗ log (Geq/mL)
same,"absolute abundance of S. sobrinus, mean ± SD log (Geq/mL)",S. sobrinus; substrate 1% (w/v),5.27 ± 0.19 log (Geq/mL)
same,"absolute abundance of S. sobrinus, mean ± SD log (Geq/mL)","S. sobrinus; substrate 1 M in PBS, n = 3",7.44 ± 0.18^∗ log (Geq/mL)
same,"absolute abundance of S. salivarius, mean ± SD log (Geq/mL)",S. salivarius; substrate 1% (w/v),2.65 ± 0.00 log (Geq/mL)
same,"absolute abundance of S. salivarius, mean ± SD log (Geq/mL)","S. salivarius; substrate 1 M in PBS, n = 3",6.19 ± 0.07^∗ log (Geq/mL)
same,"absolute abundance of S. sanguinis, mean ± SD log (Geq/mL)",S. sanguinis; substrate 1% (w/v),8.42 ± 0.43 log (Geq/mL)
same,"absolute abundance of S. sanguinis, mean ± SD log (Geq/mL)","S. sanguinis; substrate 1 M in PBS, n = 3",6.43 ± 0.97 log (Geq/mL)
same,"absolute abundance of S. mutans, mean ± SD log (Geq/mL)",S. mutans; substrate 1% (w/v),7.55 ± 0.25 log (Geq/mL)
same,"absolute abundance of S. mutans, mean ± SD log (Geq/mL)","S. mutans; substrate 1 M in PBS, n = 3",8.50 ± 0.29^∗ log (Geq/mL)
same,"absolute abundance of A. viscosus (Av), mean ± SD log (Geq/mL)",A. viscosus; substrate 1% (w/v),8.04 ± 0.28 log (Geq/mL)
same,decrease in A. viscosus numbers in comparison to the control,A. viscosus; substrate 1 M,1.9-2.5 log(Geq/mL)
same,"absolute abundance of A. viscosus (Av), mean ± SD log (Geq/mL)","A. viscosus; substrate 1 M in PBS, n = 3",6.05 ± 1.12^∗ log (Geq/mL)
same,"absolute abundance of F. nucleatum (Fn), mean ± SD log (Geq/mL)",F. nucleatum; substrate 1% (w/v),9.35 ± 0.20 log (Geq/mL)
same,"absolute abundance of F. nucleatum (Fn), mean ± SD log (Geq/mL)","F. nucleatum; substrate 1 M in PBS, n = 3",6.51 ± 0.43^∗ log (Geq/mL)
same,"absolute abundance of V. parvula (VP), mean ± SD log (Geq/mL)",V. parvula; substrate 1% (w/v),10.07 ± 0.28 log (Geq/mL)
same,reduction of V. parvula numbers in comparison to the control,V. parvula; substrate 1 M,~ 0.7 log(Geq/mL)
same,"absolute abundance of V. parvula (VP), mean ± SD log (Geq/mL)","V. parvula; substrate 1 M in PBS, n = 3",9.44 ± 0.25^∗ log (Geq/mL)
same,"fold change in ABC transp. perm. (ABC transporter permease) expression, geometric mean (95% C.I.)",[1]; substrate 1% (w/v),0.40 (0.15-1.03)^∗ fold
same,"fold change in EF-G expression, geometric mean (95% C.I.)",[1]; substrate 1% (w/v),0.12 (0.03-0.55)^∗ fold
same,"fold change in but. -coA transf. (butyrate-acetoacetate CoA-transferase) expression, geometric mean (95% C.I.)",[1]; substrate 1% (w/v),0.40 (0.05-3.27) fold
same,"fold change in hemin receptor expression, geometric mean (95% C.I.)",[1]; substrate 1% (w/v),0.16 (0.05-0.50)^∗ fold
same,"fold change in hemolysin expression, geometric mean (95% C.I.)",[1]; substrate 1% (w/v),0.65 (0.15-2.70) fold
same,"fold change in ompA expression, geometric mean (95% C.I.)",[1]; substrate 1% (w/v),0.84 (0.21-3.35) fold
same,"fold change in transposase expression, geometric mean (95% C.I.)",[1]; substrate 1% (w/v),1.02 (0.33-3.12) fold
same,"fold change in ABC transp. perm. (ABC transporter permease) expression, geometric mean (95% C.I.)",[1]; substrate 1 M,32.18 (21.08-49.14)^∗ fold
same,"fold change in EF-G expression, geometric mean (95% C.I.)",[1]; substrate 1 M,1.18 (0.46-3.02) fold
same,"fold change in but. -coA transf. (butyrate-acetoacetate CoA-transferase) expression, geometric mean (95% C.I.)",[1]; substrate 1 M,4.28 (1.32-13.86)* fold
same,"fold change in hemin receptor expression, geometric mean (95% C.I.)",[1]; substrate 1 M,41.19 (20.31-83.52)^∗ fold
same,"fold change in hemolysin expression, geometric mean (95% C.I.)",[1]; substrate 1 M,12.15 (7.73-19.10)^∗ fold
same,"fold change in ompA expression, geometric mean (95% C.I.)",[1]; substrate 1 M,1.23 (0.98-1.53) fold
same,"fold change in transposase expression, geometric mean (95% C.I.)",[1]; substrate 1 M,106.44 (42.35-267.50)^∗ fold
same,relative proportion of beneficial or commensal species in biofilm,"[2]; Table 1a, substrate 1 M",88.98 (+/- 9.12)^∗ % (Geq/mL)
same,relative proportion of cariogenic pathogens in biofilm,"[2]; Table 1a, substrate 1 M",9.22 (+/- 8.55) % (Geq/mL)
same,relative proportion of periodontal pathogens in biofilm,"[2]; Table 1a, substrate 1 M",1.80 (+/- 1.04)^∗ % (Geq/mL)
same,relative proportion of beneficial or commensal species in biofilm,[2]; [3],88.98±9.12 % (Geq/mL)
same,relative proportion of cariogenic pathogens in biofilm,[2]; [3],9.22±8.55 % (Geq/mL)
same,relative proportion of periodontal pathogens in biofilm,[2]; [3],1.80±1.04 % (Geq/mL)
same,relative proportion of beneficials/commensals in biofilm,[2]; [4],73.55 (+/- 2.84) % (Geq/mL)
same,relative proportion of cariogenic pathogens in biofilm,[2]; [4],0.21 (+/- 0.05) % (Geq/mL)
same,relative proportion of periodontal pathogens in biofilm,[2]; [4],26.23 (+/- 2.88) % (Geq/mL)
